Earlier results as cited in patent publication US12329862B2, “Transdermal therapeutic system containing asenapine” (LTS LOHMANN THERAPIE-SYSTEME AG, priority 2018, dated 2025).

What does the source list for `CN1C[C@H]2c3ccccc3Oc3ccc(Cl)cc3[C@@H]2C1` (relative stereo) [asenapine, (3aRS,12bRS)-rel-5-chloro-2,3,3a,12b-tetrahydro-2-methyl-1H-dibenz[2,3:6,7]oxepino[4,5-c]pyrrole]?
bioavailability (if ingested): < 2%; terminal disposition half-life (sublingual administration, therapeutic doses): ≥ 24 h; Somnolence and anxiety, share of the patients (very common side effects): ≥ 10%
